# Laboratory results taken from US9902703B2, “Somatostatin modulators and uses thereof” (Crinetics Pharmaceuticals, Inc., priority 2015, dated 2018).
# Biological target: T1, human somatostatin receptor subtype 2 (Homo sapiens, UniProt P30874)
# T1 construct: expressed in transfected cells; host or cells: CHO (Chinese hamster ovary) cells, G-418 selected
# Assay: cAMP assay (functional assay for SSTR2 agonists)
# Type: cell-based
# Details: CHO cells expressing human SSTR2; intracellular cAMP with forskolin, HTRF; read-out: SSTR2a EC50
# How it was run: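 CHO cells expressing human SSTR2 were treated with compound for 15 min at 37° C in buffer with forskolin, 0.2 mM IBMX and 0.1% BSA. Intracellular cAMP was read by HTRF after 1-24 h lysis at room temperature, and EC50 came from cAMP versus compound concentration curves.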
# T1 sequence (P30874 whole entry): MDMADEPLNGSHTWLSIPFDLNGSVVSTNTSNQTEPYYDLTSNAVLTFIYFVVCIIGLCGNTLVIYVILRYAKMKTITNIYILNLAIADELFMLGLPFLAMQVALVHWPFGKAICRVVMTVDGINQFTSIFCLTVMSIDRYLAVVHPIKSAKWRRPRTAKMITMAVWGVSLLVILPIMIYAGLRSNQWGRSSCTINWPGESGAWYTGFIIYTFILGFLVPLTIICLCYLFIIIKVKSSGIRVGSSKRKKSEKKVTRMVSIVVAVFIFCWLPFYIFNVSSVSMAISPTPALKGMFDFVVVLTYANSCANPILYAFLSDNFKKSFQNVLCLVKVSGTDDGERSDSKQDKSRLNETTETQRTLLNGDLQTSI
row,EC50 [µM],Structure (SMILES)
1,< 0.1,"Cc1cc(Cl)cc(N2C=Nc3cc(C)c(-c4cncc(C#N)c4)cc3C2C(=O)N(C)C[C@@H]2CCCN2)c1 (stereo partly drawn) [Compound 2-18, 3-(3-chloro-5-methylphenyl)-6-(5-cyanopyridin-3-yl)-N,7-dimethyl-N-[(2S)-pyrrolidin-2-ylmethyl]-3,4-dihydroquinazoline-4-carboxamide]"
2,< 0.1,"Cc1cc(Cl)cc(N2C=Nc3cc(C)c(-c4cc(C(F)(F)F)cnc4Cl)cc3C2C(=O)N(C)C[C@@H]2CCCN2)c1 (stereo partly drawn) [Compound 2-19, 6-[2-chloro-5-(trifluoromethyl)pyridin-3-yl]-3-(3-chloro-5-methylphenyl)-N,7-dimethyl-N-[(2S)-pyrrolidin-2-ylmethyl]-3,4-dihydroquinazoline-4-carboxamide]"
3,< 0.1,"Cc1cc(Cl)cc(N2C=Nc3cc(C)c(-c4cc(F)cc(C(F)(F)F)c4)cc3C2C(=O)N(C)C[C@@H]2CCCN2)c1 (stereo partly drawn) [Compound 2-20, 3-(3-chloro-5-methylphenyl)-6-[3-fluoro-5-(trifluoromethyl)phenyl]-N,7-dimethyl-N-[(2S)-pyrrolidin-2-ylmethyl]-3,4-dihydroquinazoline-4-carboxamide]"
4,< 0.1,"Cc1cc(Cl)cc(N2C=Nc3cc(C)c(-c4cc(O)cc(F)c4)cc3C2C(=O)N(C)C[C@@H]2CCCN2)c1 (stereo partly drawn) [Compound 2-21, 3-(3-chloro-5-methylphenyl)-6-(3-fluoro-5-hydroxyphenyl)-N,7-dimethyl-N-[(2S)-pyrrolidin-2-ylmethyl]-3,4-dihydroquinazoline-4-carboxamide]"
5,< 0.1,"COc1cc(C#N)cc(-c2cc3c(cc2C)N=CN(c2cc(C)cc(Cl)c2)C3C(=O)N(C)C[C@@H]2CCCN2)c1 (stereo partly drawn) [Compound 2-24, 3-(3-chloro-5-methylphenyl)-6-(3-cyano-5-methoxyphenyl)-N,7-dimethyl-N-[(2S)-pyrrolidin-2-ylmethyl]-3,4-dihydroquinazoline-4-carboxamide]"
6,0.1 to 1,"Cc1cc(Cl)cc(N2C=Nc3cc(C)c(-c4cc(C)oc4C)cc3C2C(=O)N(C)C[C@@H]2CCCN2)c1 (stereo partly drawn) [Compound 2-25, 3-(3-chloro-5-methylphenyl)-6-(2,5-dimethylfuran-3-yl)-N,7-dimethyl-N-[(2S)-pyrrolidin-2-ylmethyl]-3,4-dihydroquinazoline-4-carboxamide]"

# Second part, the compound before the results:
row,Structure (SMILES),EC50 [µM]
1,"Cc1cc(Cl)cc(N2C=Nc3cc(C)c(-c4cc(F)ccc4C)cc3C2C(=O)N(C)C[C@@H]2CCCN2)c1 (stereo partly drawn) [Compound 2-13, 3-(3-chloro-5-methylphenyl)-6-(5-fluoro-2-methylphenyl)-N,7-dimethyl-N-[(2S)-pyrrolidin-2-ylmethyl]-3,4-dihydroquinazoline-4-carboxamide]",< 0.1
2,"Cc1cc(Cl)cc(N2C=Nc3cc(C)c(-c4cc(C(N)=O)ccn4)cc3C2C(=O)N(C)C[C@@H]2CCCN2)c1 (stereo partly drawn) [Compound 2-14, 6-(4-carbamoylpyridin-2-yl)-3-(3-chloro-5-methylphenyl)-N,7-dimethyl-N-[(2S)-pyrrolidin-2-ylmethyl]-3,4-dihydroquinazoline-4-carboxamide]",0.1 to 1
3,"COc1cc(C)cc(-c2cc3c(cc2C)N=CN(c2cc(C)cc(Cl)c2)C3C(=O)N(C)C[C@@H]2CCCN2)c1 (stereo partly drawn) [Compound 2-15, 3-(3-chloro-5-methylphenyl)-6-(3-methoxy-5-methylphenyl)-N,7-dimethyl-N-[(2S)-pyrrolidin-2-ylmethyl]-3,4-dihydroquinazoline-4-carboxamide]",< 0.1
4,"COc1cc(-c2cc3c(cc2C)N=CN(c2cc(C)cc(Cl)c2)C3C(=O)N(C)C[C@@H]2CCCN2)ccc1C (stereo partly drawn) [Compound 2-16, 3-(3-chloro-5-methylphenyl)-6-(3-methoxy-4-methylphenyl)-N,7-dimethyl-N-[(2S)-pyrrolidin-2-ylmethyl]-3,4-dihydroquinazoline-4-carboxamide]",< 0.1
5,"Cc1cc(Cl)cc(N2C=Nc3cc(C)c(-c4cc(Cl)cc(C5(C#N)CC5)c4)cc3C2C(=O)N(C)C[C@@H]2CCCN2)c1 (stereo partly drawn) [Compound 2-17, 6-[3-chloro-5-(1-cyanocyclopropyl)phenyl]-3-(3-chloro-5-methylphenyl)-N,7-dimethyl-N-[(2S)-pyrrolidin-2-ylmethyl]-3,4-dihydroquinazoline-4-carboxamide]",< 0.1
